This is an account of results in patent US20080207527A1, “Bicyclic Compounds Which Inhibit Beta-Secretase Activity and Methods of Use Thereof” (CoMentis, Inc., priority 2004, published 2008).

The target in one experiment is T1, memapsin 1 (Homo sapiens, UniProt Q9Y5Z0).
T1 sequence (Q9Y5Z0 63-518): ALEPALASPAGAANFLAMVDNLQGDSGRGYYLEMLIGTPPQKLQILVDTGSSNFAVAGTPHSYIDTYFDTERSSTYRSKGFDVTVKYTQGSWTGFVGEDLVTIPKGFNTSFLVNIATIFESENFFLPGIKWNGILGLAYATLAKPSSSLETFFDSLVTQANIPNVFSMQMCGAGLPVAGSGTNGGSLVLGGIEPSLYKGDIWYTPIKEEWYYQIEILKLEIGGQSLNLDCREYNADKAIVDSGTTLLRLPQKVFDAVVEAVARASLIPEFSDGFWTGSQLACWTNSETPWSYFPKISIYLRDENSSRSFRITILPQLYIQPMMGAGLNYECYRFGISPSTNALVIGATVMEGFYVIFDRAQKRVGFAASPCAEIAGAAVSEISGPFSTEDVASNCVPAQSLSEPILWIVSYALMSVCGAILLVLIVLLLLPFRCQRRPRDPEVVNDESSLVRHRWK
Description: Inhibition of memapsin 1 beta-secretase activity (substrate peptide hydrolysis, MALDI-TOF). To be noted: pH 4.1, 37 degrees C., read-out: M1 Ki. Type of experiment: biochemical.

Another experiment has as its target memapsin 2 (Homo sapiens, UniProt P56817). The experiment can be described thus: Inhibition of memapsin 2 beta-secretase activity toward fluorogenic substrate FS-2. In kind it is biochemical. To be noted: pH 4, 37° C., 20 minutes pre-incubation, read-out: M2 Ki. The procedure: Potency of compounds were determined by measurement of their inhibition of memapsin 2 activity toward a fluorescent substrate. […] Briefly, assays were performed at pH 4, 37° C., by pre-incubation of memapsin 2 enzyme with compound for 20 minutes. Activity measure was initiated by addition of a fluorogenic substrate FS-2 (Bachem Americas, Torrance, Calif.). Fluorescent signal increase over time was measured as a rate of hydrolysis of the peptide substrate.

The target of the next experiment is Cathepsin D (Homo sapiens, UniProt P07339). Description: Inhibition of cathepsin D activity (substrate peptide hydrolysis, MALDI-TOF). Type of experiment: biochemical. Conditions: pH 4.1, 37 degrees C., read-out: Cath D Ki.
In another experiment the test system is Aβ production. The experiment can be described thus: Cellular Aβ IC50 determination (Aβ40 sandwich ELISA). Type of experiment: cell-based. Conditions: Cricetulus griseus, Chinese hamster ovary cells over-expressing human APP695 with London and Swedish mutations, 24 h. On the procedure:
The potency of compounds against memapsin 2 activity was determined in a cellular assay of Aβ production. […] Chinese hamster ovary cells that over-express human APP695 with the London and Swedish mutations were seeded in multi-well plates at 10% confluency. Compounds were dissolved in DMSO to concentrations near 1 mM, and diluted into culture media to a final concentration near 4 μM (final 0.4% DMSO). Compounds were diluted serially and applied to cells in multi-well plates 48 h after seeding. Incubation was continued in 5% CO2 at 37 degrees C. for 24 h. Aliquots were removed and assayed for Aβ40 content using a sandwich ELISA (BioSource International). Amount of Aβ40 over the range of concentration of compounds, relative to control incubations, were fit to a 4-parameter IC50 model.
(An ELISA detects its analyte on a solid surface through an enzyme-linked reagent.)

Molecules are shown by their SMILES.

memapsin 2, sequence (P56817 46-501): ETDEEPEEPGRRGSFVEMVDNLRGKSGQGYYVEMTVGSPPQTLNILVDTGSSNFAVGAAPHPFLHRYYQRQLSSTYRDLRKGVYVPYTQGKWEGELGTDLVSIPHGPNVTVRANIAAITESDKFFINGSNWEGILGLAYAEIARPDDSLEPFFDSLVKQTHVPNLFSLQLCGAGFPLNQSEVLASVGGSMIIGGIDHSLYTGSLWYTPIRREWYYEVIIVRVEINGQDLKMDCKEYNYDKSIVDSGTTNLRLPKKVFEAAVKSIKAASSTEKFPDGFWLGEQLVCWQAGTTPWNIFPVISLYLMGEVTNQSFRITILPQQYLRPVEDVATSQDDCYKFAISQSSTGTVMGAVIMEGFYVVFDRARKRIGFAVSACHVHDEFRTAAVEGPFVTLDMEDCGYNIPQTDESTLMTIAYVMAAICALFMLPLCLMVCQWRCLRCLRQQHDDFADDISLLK
Cathepsin D, sequence (P07339 65-412, species assumed): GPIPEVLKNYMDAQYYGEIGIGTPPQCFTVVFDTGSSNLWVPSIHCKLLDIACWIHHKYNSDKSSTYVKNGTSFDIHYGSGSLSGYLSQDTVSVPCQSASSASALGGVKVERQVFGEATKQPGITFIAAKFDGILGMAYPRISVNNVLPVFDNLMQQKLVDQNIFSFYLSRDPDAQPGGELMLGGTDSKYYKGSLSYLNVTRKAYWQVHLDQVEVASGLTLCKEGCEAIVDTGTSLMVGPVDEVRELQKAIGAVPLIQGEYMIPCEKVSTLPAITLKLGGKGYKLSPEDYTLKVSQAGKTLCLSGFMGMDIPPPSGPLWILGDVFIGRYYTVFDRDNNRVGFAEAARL

The Ki is a dissociation constant, usually derived from enzyme kinetics or from competition with a known ligand. `CCCN(CCC)C(=O)c1cccc(C(=O)N[C@@H](CC(C)C)[C@@H](O)C[C@@H](C)C(=O)NC(C(=O)NCC(C)C)C(C)C)c1` (stereo in doubt) [N1-(5-hydroxy-8-(1-(isobutylamino)-3-methyl-1-oxobutan-2-ylamino)-2,7-dimethyl-8-oxooctan-4-yl)-N3,N3-dipropylisophthalamide]: the Ki at memapsin 1, on memapsin 2 and on Cathepsin D was below 405 nM throughout.

A word on the IC50: it is the concentration that gives 50% inhibition. High values mean lower potency, low ones higher potency. Regarding `CC(C)CNC(=O)C(NC(=O)C(C)CC(O)C(CC(C)C)NC(=O)c1cc(C(=O)NC(C)c2ccccc2)cc(S(=O)(=O)N(C)C)c1)C(C)C` (stereo not drawn) [5-(N,N-dimethylsulfamoyl)-N1-(5-hydroxy-8-(1-(isobutylamino)-3-methyl-1-oxobutan-2-ylamino)-2,7-dimethyl-8-oxooctan-4-yl)-N3-(1-phenylethyl)isophthalamide], the Ki on memapsin 1 is below 405 nM; on memapsin 2, 405 to 2000 nM; at Cathepsin D it was below 405 nM. Moreover, in the experiment with Aβ production, the IC50 was below 5 µM.

For `CC(=O)Nc1cc(C(=O)NC(C)c2ccccc2)cc(C(=O)NC(CC(C)C)C(O)CC(C)C(=O)NC(C(=O)NCC(C)C)C(C)C)c1` (stereo not drawn) [5-acetamido-N1-(5-hydroxy-8-(1-(isobutylamino)-3-methyl-1-oxobutan-2-ylamino)-2,7-dimethyl-8-oxooctan-4-yl)-N3-(1-phenylethyl)isophthalamide], the Ki on memapsin 1, at memapsin 2 and on Cathepsin D was below 405 nM throughout. In addition, the IC50 in the experiment with Aβ production lay within 5 to 10 µM.

In the case of `CC(C)CNC(=O)C(NC(=O)C(C)CC(O)C(CC(C)C)NC(=O)c1cc(F)cc(C(=O)NC(C)c2ccccc2)c1)C(C)C` (stereo not drawn) [5-fluoro-N1-(5-hydroxy-8-(1-(isobutylamino)-3-methyl-1-oxobutan-2-ylamino)-2,7-dimethyl-8-oxooctan-4-yl)-N3-(1-phenylethyl)isophthalamide], the Ki is below 405 nM on memapsin 1, 405 to 2000 nM on memapsin 2 and below 405 nM on Cathepsin D. The same compound showed an IC50 in the experiment with Aβ production of 10 to 20 µM.

Take `CCCN(CCC)C(=O)c1cccc(C(=O)NC(Cc2cc(F)cc(F)c2)C(O)CC(C)C(=O)NCC(C)C)c1` (stereo not drawn) [N1-(1-(3,5-difluorophenyl)-3-hydroxy-6-(isobutylamino)-5-methyl-6-oxohexan-2-yl)-N3,N3-dipropylisophthalamide]: the Ki at memapsin 1, on memapsin 2 and at Cathepsin D was below 405 nM throughout. The compound further had an IC50 in the experiment on Aβ production below 5 µM.

Regarding `CCCN(CCC)C(=O)c1cccc(C(=O)NC(Cc2ccc(OC)c(Cl)c2)C(O)CC(C)C(=O)NC(C(=O)NCC(C)C)C(C)C)c1` (stereo not drawn) [N1-(1-(3-chloro-4-methoxyphenyl)-3-hydroxy-6-(1-(isobutylamino)-3-methyl-1-oxobutan-2-ylamino)-5-methyl-6-oxohexan-2-yl)-N3,N3-dipropylisophthalamide], the values for the Ki at memapsin 1, on memapsin 2 and on Cathepsin D were below 405 nM, 405 to 2000 nM and below 405 nM, respectively. The same compound registered a half-inhibitory concentration (IC50) in the experiment with Aβ production of 10 to 20 µM.

Take `CC(C)CC(NC(=O)c1cc(C(=O)NC2c3ccccc3CC2O)cc(N(C)S(C)(=O)=O)c1)C(O)CC(C)C(=O)NC(C(=O)NC(C)C)C(C)C` (stereo not drawn) [N1-(2-hydroxy-2,3-dihydro-1H-inden-1-yl)-N3-(5-hydroxy-8-(1-(isopropylamino)-3-methyl-1-oxobutan-2-ylamino)-2,7-dimethyl-8-oxooctan-4-yl)-5-(N-methylmethylsulfonamido)isophthalamide]: the inhibitory constant (Ki) on memapsin 1, at memapsin 2 and on Cathepsin D was 405 to 2000 nM throughout. Besides, the IC50 in the experiment on Aβ production is above 20 µM.

As for `CCCN(CCC)C(=O)c1cccc(C(=O)NC(Cc2ccc(OC)cc2)C(O)CC(C)C(=O)NC(C(=O)NCC(C)C)C(C)C)c1` (stereo not drawn) [N1-(3-hydroxy-6-(1-(isobutylamino)-3-methyl-1-oxobutan-2-ylamino)-1-(4-methoxyphenyl)-5-methyl-6-oxohexan-2-yl)-N3,N3-dipropylisophthalamide], the Ki on memapsin 1, on memapsin 2 and at Cathepsin D was below 405 nM each time. The IC50 with Aβ production was in the range of 5 to 10 µM.

`COc1ccc(C[C@H](NC(=O)c2cccc(C(=O)NCc3nc(C)cs3)c2)[C@@H](O)C[C@@H](C)C(=O)N[C@H](C(=O)NCC(C)C)C(C)C)cc1` [N1-(3-hydroxy-6-(1-(isobutylamino)-3-methyl-1-oxobutan-2-ylamino)-1-(4-methoxyphenyl)-5-methyl-6-oxohexan-2-yl)-N3-((4-methylthiazol-2-yl)methyl)isophthalamide]: the Ki was 405 to 2000 nM at memapsin 1, 2000 to 5000 nM on memapsin 2 and below 405 nM at Cathepsin D.

As to `CC(C)CC(NC(=O)c1cc(C(=O)NC(C)c2ccccc2)cc(N(C)S(C)(=O)=O)c1)C(O)CC(C)C(=O)NC(C(=O)NCC1CCCN1C)C(C)C` (stereo not drawn) [N1-(5-hydroxy-2,7-dimethyl-8-(3-methyl-1-((1-methylpyrrolidin-2-yl)methylamino)-1-oxobutan-2-ylamino)-8-oxooctan-4-yl)-5-(N-methylmethylsulfonamido)-N3-(1-phenylethyl)isophthalamide], the Ki at memapsin 1 was 405 to 2000 nM; at memapsin 2, below 405 nM; at Cathepsin D, 405 to 2000 nM. Besides, the IC50 with Aβ production is below 5 µM.

With `CC(C)CC(NC(=O)c1cc(C(=O)NC(C)c2ccccc2)cc(N(C)S(C)(=O)=O)c1)C(O)CC(C)C(=O)NC(C(=O)NCc1ccccn1)C(C)C` (stereo not drawn) [N1-(5-hydroxy-2,7-dimethyl-8-(3-methyl-1-oxo-1-(pyridin-2-ylmethylamino)butan-2-ylamino)-8-oxooctan-4-yl)-5-(N-methylmethylsulfonamido)-N3-(1-phenylethyl)isophthalamide], the Ki on memapsin 1, at memapsin 2 and on Cathepsin D was below 405 nM throughout. Further, the IC50 in the experiment on Aβ production was below 5 µM.

With `CC(C)CNC(=O)C(NC(=O)C(C)CC(O)C(CC(C)C)NC(=O)c1cccc(C(=O)N(C)Cc2nccn2C)c1)C(C)C` (stereo not drawn) [N1-(5-hydroxy-8-(1-(isobutylamino)-3-methyl-1-oxobutan-2-ylamino)-2,7-dimethyl-8-oxooctan-4-yl)-N3-methyl-N3-((1-methyl-1H-imidazol-2-yl)methyl)isophthalamide], the Ki on memapsin 1 was above 5000 nM; at memapsin 2, above 5000 nM; on Cathepsin D, 2000 to 5000 nM.

Take `CC(C)CC(NC(=O)c1cc(C(=O)NC(C)c2ccccc2)cc(N(C)S(C)(=O)=O)c1)C(O)CC(C)C(=O)NC(C)C` (stereo not drawn) [N1-(5-hydroxy-8-(isopropylamino)-2,7-dimethyl-8-oxooctan-4-yl)-5-(N-methylmethylsulfonamido)-N3-(1-phenylethyl)isophthalamide]: the Ki at memapsin 1 and on memapsin 2 was 405 to 2000 nM throughout. In the experiment with Aβ production, this compound had an IC50 above 20 µM.

For `Cc1nc(CN(C)C(=O)c2cccc(C(=O)NC(CC(C)C)C(O)CC(C)C(=O)NC(C(=O)NCC(C)C)C(C)C)c2)c(C)o1` (stereo not drawn) [N1-((2,5-dimethyloxazol-4-yl)methyl)-N3-(5-hydroxy-8-(1-(isobutylamino)-3-methyl-1-oxobutan-2-ylamino)-2,7-dimethyl-8-oxooctan-4-yl)-N1-methylisophthalamide], the Ki at memapsin 1 is 405 to 2000 nM; on memapsin 2 it was below 405 nM; at Cathepsin D it was below 405 nM.

`Cc1csc(CNC(=O)c2cccc(C(=O)N[C@@H](CC(C)C)[C@@H](O)C[C@@H](C)C(=O)N[C@H](C(=O)NCC(C)C)C(C)C)n2)n1` [N2-(5-hydroxy-8-(1-(isobutylamino)-3-methyl-1-oxobutan-2-ylamino)-2,7-dimethyl-8-oxooctan-4-yl)-N6-((4-methylthiazol-2-yl)methyl)pyridine-2,6-dicarboxamide]: the Ki on memapsin 2 is 2000 to 5000 nM; at Cathepsin D, above 5000 nM. This compound gave an IC50 with Aβ production above 20 µM.

For `COC(=O)N(C)c1cc(C(=O)NC(C)c2ccccc2)cc(C(=O)NC(CC(C)C)C(O)CC(C)C(=O)NC(C(=O)NCC(C)C)C(C)C)c1` (stereo not drawn) [methyl 3-(5-hydroxy-8-(1-(isobutylamino)-3-methyl-1-oxobutan-2-ylamino)-2,7-dimethyl-8-oxooctan-4-ylcarbamoyl)-5-(1-phenylethylcarbamoyl)phenyl(methyl)carbamate], the Ki is below 405 nM at memapsin 1, 405 to 2000 nM on memapsin 2 and below 405 nM on Cathepsin D.
